Like-named read-outs stand apart in the source and are kept apart here.
Legend:
Primary T Cell = test: T cell enhancement of cytokines: IL2 measurement (HTRF) in expanded CD3+ T cells stimulated with anti-CD3/anti-CD28; format: cell-based, human; details: plate-bound anti-CD3 and soluble anti-CD28, 24 h, read-out: IL-2 Primary T Cell EC50
Experimental: T cells are isolated from whole blood of healthy donors by immunomagnetic negative selection following manufacture's protocol (StemCell Technologies, human T cell isolation kit). Purity of isolated cells is assessed by flow cytometry and yields 95-98% CD3^+ T cells. For expansion of T cells, 1×10^6 cells/well are plated in serum free cell expansion media (ThermoFisher) containing 30U of recombinant human IL2 (R&D) and stimulated with 25 ul of CD3/CD28 beads (Invitrogen) in 24 well plates for 3-4 days. T cells are then expanded in 175 cm flasks and maintained at a cell density of 1 to 2.5×10^6 cells/ml days by addition of ⅔ of fresh media every 2-3 days. After 10-14 days, cells are frozen in BamBanker freezing media (Thermo) and stored in liquid nitrogen.
For IL2 measurement, expanded CD3+ T cells are dispensed at 100K cells/well (cultured in X-VIVO 10 Serum-free media) and are stimulated with plate-bound anti-CD3 and soluble anti-CD28 in the presence of vehicle or compound of the disclosure at various concentrations for 24 h. As outlined in the manufacturer's protocol (Cisbio), 16 μL of conditioned media is transferred to a white 384-well low volume plate. Following a 24 h incubation with the anti-IL2 antibodies, the homogenous time resolved fluorescence (HTRF) is measured.

MAP4K1 (HPK1) = target: T1, MAP4K1 (HPK1) (Homo sapiens, UniProt Q92918); test: Inhibition of MAP4K1 biochemical enzymatic activity (EZReader 2 electrophoretic mobility shift assay); details: HPK1 (Invitrogen), S6K2tide 1.5 μM, 120 min; ATP 26 μM or 1000 μM (not stated which)
T1 construct: purchased Invitrogen
Text: MAP4K1 (HPK1) and relevant off-target enzymatic activity was monitored using the Perkin Elmer electrophoretic mobility shift technology platform—the EZReader 2. […] Within the linear, steady-state phase of the kinase enzymatic reaction, the mixed pool of phosphorylated (product) and non-phosphorylated (substrate) peptides was passed through the microfluidic system of the PerkinElmer EZ Reader 2, under an applied electric potential difference. The presence of the phosphate group on the product peptide provided a difference in mass and charge between that of the substrate peptide, resulting in a separation of the substrate and product pools in the sample (Perrin et al. 2010). As the product and substrate peptide mixture passes the lasers within the instrument, these pools are detected (λex=488 nm, λem=568 nm) and resolved as separate peaks. The ratio between these peaks reflects the activity of the compound at that concentration, in that well, under those conditions.
Inhibitors were dissolved in 100% DMSO at a stock concentration of 10 mM. A 100×, 10-point, 4-fold serial dilution of each inhibitor was created in 100% DMSO either manually or on a Hamilton STAR liquid handler, starting at a relevant concentration, usually 1 mM. A volume of 0.130 μL of each concentration was transferred to the relevant wells of a 384-well plate (Greiner 781 201) in diplicate using a TTPLabtech Mosquito nano-litre dispenser. Using a Multidrop Combi, the remaining constituents of the kinase reaction were added to the 130 nL of dosed compound as follows (see table below for final reaction details):
Enzyme activity assays at the ^APPKM for ATP or 1 mM ATP: In each well of a 384-well plate, 0.1-15 nM of untreated enzyme was incubated in a total of 13 μL of buffer (100 mM HEPES pH 7.5, 0.015% Brij 35, 10 mM MgCl2, 1 mM DTT) with 1.5 μM fluorescent peptid and 20-1000 μM ATP, at 25° C., for 60-180 minutes in the presence or absence of a dosed concentration series of compound (1% DMSO final concentration). The kinase reactions were stopped by the addition of 70 μl of Stop buffer (100 mM HEPES pH 7.5, 0.015% Brij 35, 35 mM EDTA and 0.2% of Coating Reagent 3 (Caliper Lifesciences)). The plates were read on a Caliper EZReader 2 as described above.

T1 sequence (Q92918 whole entry): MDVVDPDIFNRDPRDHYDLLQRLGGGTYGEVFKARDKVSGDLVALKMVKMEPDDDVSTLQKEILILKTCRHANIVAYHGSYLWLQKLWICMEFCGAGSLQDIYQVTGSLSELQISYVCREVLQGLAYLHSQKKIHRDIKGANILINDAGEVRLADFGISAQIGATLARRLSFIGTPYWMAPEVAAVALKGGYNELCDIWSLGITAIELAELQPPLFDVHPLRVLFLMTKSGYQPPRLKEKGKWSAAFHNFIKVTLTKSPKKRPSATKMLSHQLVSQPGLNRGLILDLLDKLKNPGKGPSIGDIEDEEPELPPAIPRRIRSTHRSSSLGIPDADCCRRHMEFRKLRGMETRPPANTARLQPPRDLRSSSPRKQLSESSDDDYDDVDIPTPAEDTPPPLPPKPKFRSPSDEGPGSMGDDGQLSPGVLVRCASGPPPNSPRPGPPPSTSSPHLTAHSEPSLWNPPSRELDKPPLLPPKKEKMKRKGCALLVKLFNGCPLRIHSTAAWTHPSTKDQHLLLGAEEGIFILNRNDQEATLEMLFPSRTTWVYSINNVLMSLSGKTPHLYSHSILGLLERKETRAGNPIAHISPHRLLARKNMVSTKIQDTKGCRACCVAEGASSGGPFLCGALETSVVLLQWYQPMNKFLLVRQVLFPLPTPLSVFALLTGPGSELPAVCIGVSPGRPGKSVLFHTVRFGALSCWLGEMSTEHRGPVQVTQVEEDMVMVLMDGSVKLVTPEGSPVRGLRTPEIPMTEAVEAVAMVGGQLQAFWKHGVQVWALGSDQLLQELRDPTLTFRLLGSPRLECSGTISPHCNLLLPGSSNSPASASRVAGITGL

| EC50 (Primary T Cell; Homo sapiens, T-cell, 24 h) [nM] | IC50 (MAP4K1 (HPK1)) [nM] | EC50 (Primary T Cell) [nM] | SMILES |
| --- | --- | --- | --- |
| 38.6 | 0.63 | – | CC[C@@H](N)c1cnc(OC2CN(C(=O)[C@@H]3C[C@@H]3F)C2)c2cnc(Nc3ccc4c(n3)[C@@H](C)C(C)(C)OC4=O)cc12 (single isomer, unassigned) [Compound 11, (R)-2-((5-((R)-1-aminopropyl)-8-((1-((1S,2S)-2-fluorocyclopropane-1-carbonyl)azetidin-3-yl)oxy)-2,7-naphthyridin-3-yl)amino)-7,7,8-trimethyl-7,8-dihydro-5H-pyrano[4,3-b]pyridin-5-one or (R)-2-((5-((S)-1-aminopropyl)-8-((1-((1S,2S)-2-fluorocyclopropane-1-carbonyl)azetidin-3-yl)oxy)-2,7-naphthyridin-3-yl)amino)-7,7,8-trimethyl-7,8-dihydro-5H-pyrano[4,3-b]pyridin-5-one] |
| 160 | 0.19 | – | CC[C@@H](N)c1ccc(OC2CN(C(=O)C3CC3)C2)c2cnc(Nc3ccc4c(n3)[C@@H](C)C(C)(C)OC4=O)cc12 (single isomer, unassigned) [Compound 40, (R)-2-((5-((R)-1-Aminopropyl)-8-((1-(cyclopropanecarbonyl)azetidin-3-yl)oxy)isoquinolin-3-yl)amino)-7,7,8-trimethyl-7,8-dihydro-5H-pyrano[4,3-b]pyridin-5-one or (R)-2-((5-((S)-1-aminopropyl)-8-((1-(cyclopropanecarbonyl)azetidin-3-yl)oxy)isoquinolin-3-yl)amino)-7,7,8-trimethyl-7,8-dihydro-5H-pyrano[4,3-b]pyridin-5-one] |
| 71.2 | 0.16 | – | C[C@@H]1c2nc(Nc3cc4c(C(C)(C)N)cnc(OC5CC(C)(C(=O)N(C)C)C5)c4cn3)ccc2C(=O)OC1(C)C (single isomer, unassigned) [Compound 81] |
| – | 0.11 | 23.8 | CC[C@@H](N)c1ccc(OC2CN(C(=O)[C@@H]3C[C@@H]3F)C2)c2cnc(Nc3ccc4c(n3)[C@@H](C)C(C)(C)OC4=O)cc12 (single isomer, unassigned) [Compound 83, (R)-2-((5-((R)-1-Aminopropyl)-8-((1-((1S,2S)-2-fluorocyclopropane-1-carbonyl)azetidin-3-yl)oxy)isoquinolin-3-yl)amino)-7,7,8-trimethyl-7,8-dihydro-5H-pyrano[4,3-b]pyridin-5-one or (R)-2-((5-((S)-1-aminopropyl)-8-((1-((1S,2S)-2-fluorocyclopropane-1-carbonyl)azetidin-3-yl)oxy)isoquinolin-3-yl)amino)-7,7,8-trimethyl-7,8-dihydro-5H-pyrano[4,3-b]pyridin-5-one] |
| – | 0.09 | 10.3 | COCC(C)(N)c1cnc(OC2CN(C(=O)C3CC3F)C2)c2cnc(Nc3ccc4c(n3)C(C)C(C)OC4=O)cc12 (single isomer, unassigned) [Compound 96] |
| – | 0.36 | 50.1 | COCC(C)(N)c1cnc(OC2CN(C(=O)C3CC3F)C2)c2cnc(Nc3ccc4c(n3)C(C)C(C)OC4=O)cc12 (single isomer, unassigned) [Compound 97] |
| 10.2 | 0.24 | – | CCC[C@@](C)(N)c1ncc(OC2CN(C(C)=O)C2)c2cnc(Nc3ccc4c(n3)CC(C)(C)OC4=O)cc12 (single isomer, unassigned) [Compound 112] |
| 7.4 | 0.11 | – | CCCC(C)(N)c1cnc(OC2CN(C(C)=O)C2)c2cnc(Nc3ccc4c(n3)[C@@H](C)[C@H](C)OC4=O)cc12 (single isomer, unassigned) [Compound 113] |
| 5.4 | 0.1 | – | CCCC(C)(N)c1cnc(OC2CN(C(C)=O)C2)c2cnc(Nc3ccc4c(n3)[C@@H](C)C(C)(C)OC4=O)cc12 (single isomer, unassigned) [Compound 115] |
| 74.2 | 0.09 | – | CC[C@H](N)c1cnc(O[C@H]2C[C@@H](C(=O)N3CC(OC)C3)C2)c2cnc(Nc3ccc4c(n3)[C@@H](C)C(C)(C)OC4=O)cc12 (single isomer, unassigned) [Compound 127] |
| 99.3 | 0.26 | – | CC[C@@H](N)c1ccc(OC2CN(C(C)=O)C2)c2cnc(Nc3ccc4c(n3)[C@@H](C)C(C)(C)OC4=O)cc12 (stereo in doubt) [Compound 20] |
| 57.4 | 0.54 | – | CC[C@@H](N)c1cnc(OC2CN(C(=O)C3CC3)C2)c2cnc(Nc3ccc4c(n3)[C@@H](C)C(C)(C)OC4=O)cc12 (stereo in doubt) [Compound 53] |
| 34.7 | 0.18 | – | CC(=O)N1CC(Oc2ncc(C(C)(C)N)c3cc(Nc4ccc5c(n4)[C@@H](C)[C@H](C)OC5=O)ncc23)C1 [Compound 1, (7S,8R)-2-((8-((1-acetylazetidin-3-yl)oxy)-5-(2-aminopropan-2-yl)-2,7-naphthyridin-3-yl)amino)-7,8-dimethyl-7,8-dihydro-5H-pyrano[4,3-b]pyridin-5-one] |
| 33.5 | 0.33 | – | CC(=O)N1C[C@@H](Oc2ncc(C(C)(C)N)c3cc(Nc4ccc5c(n4)[C@@H](C)[C@H](C)OC5=O)ncc23)[C@@H]1C [Compound 3] |
| – | 0.24 | – | C[C@@H]1OC(=O)c2ccc(Nc3cc4c(C(C)(C)N)cnc(O[C@H]5C[C@@H](C(=O)N6CC(F)C6)C5)c4cn3)nc2[C@H]1C [Compound 84] |
| – | 0.35 | – | COC[C@@](C)(N)c1cnc(O[C@H]2CN(C(=O)C3CC3)[C@@H]2C)c2cnc(Nc3ccc4c(n3)[C@@H](C)[C@H](C)OC4=O)cc12 [Compound 89] |
| – | 0.18 | – | C[C@@H]1c2nc(Nc3cc4c(C(C)(C)N)cnc(OC5CN(C(=O)[C@@H]6CCCO6)C5)c4cn3)ccc2C(=O)OC1(C)C [Compound 90] |
| – | 0.31 | – | COC[C@@](C)(N)c1cnc(O[C@@H]2CN(C(=O)C3CC3)[C@H]2C)c2cnc(Nc3ccc4c(n3)[C@@H](C)[C@H](C)OC4=O)cc12 [Compound 91] |
| – | 0.17 | – | COC1(C(=O)N2CC(Oc3ncc(C(C)(C)N)c4cc(Nc5ccc6c(n5)[C@@H](C)C(C)(C)OC6=O)ncc34)C2)CC1 [Compound 93] |
| – | 0.14 | – | C[C@@H]1c2nc(Nc3cc4c(C(C)(C)N)cnc(O[C@H]5C[C@@H](C(=O)N6CC(F)C6)C5)c4cn3)ccc2C(=O)OC1(C)C [Compound 94] |
| – | 0.19 | – | C[C@@H]1OC(=O)c2ccc(Nc3cc4c(C(C)(C)N)cnc(O[C@H]5C[C@@H](C(=O)N6CC(F)(F)C6)C5)c4cn3)nc2[C@H]1C [Compound 98] |
| – | 0.24 | – | C[C@@H]1c2nc(Nc3cc4c(C(C)(C)N)cnc(OC5CN(C(=O)C6(C(F)(F)F)CC6)C5)c4cn3)ccc2C(=O)OC1(C)C [Compound 103] |
| – | 2.86 | – | CC(=O)N1CC(Oc2ncc(C(C)(C)N)c3cc(Nc4ccc5c(n4)CCOC5=O)ncc23)C1 [Compound 108] |
| – | 4 | – | CC(=O)N1CC(Oc2ncc(C(C)(C)N)c3cc(Nc4ccc5c(n4)C(C)(C)OC5=O)ncc23)C1 [Compound 109] |
| – | 0.62 | – | CC(=O)N1CC(Oc2ncc(C(C)(C)N)c3cc(Nc4ccc5c(n4)C(C)(C)COC5=O)ncc23)C1 [Compound 110] |
| – | 0.07 | – | C[C@@H]1c2nc(Nc3cc4c(C(C)(C)N)ccc(OCCOC(=O)N(C)C)c4cn3)ccc2C(=O)OC1(C)C [Compound 114] |
| – | 1.13 | – | CC(=O)N1CCC[C@@H]1COc1ncc(C(C)(C)N)c2cc(Nc3ccc4c(n3)[C@@H](C)C(C)(C)OC4=O)ncc12 [Compound 116] |
| – | 2.02 | – | CC(=O)N1CCC[C@H]1COc1ncc(C(C)(C)N)c2cc(Nc3ccc4c(n3)[C@@H](C)C(C)(C)OC4=O)ncc12 [Compound 117] |
| – | 0.26 | – | COC[C@@](C)(N)c1cnc(O[C@H]2C[C@H](C(=O)N(C)C)C2)c2cnc(Nc3ccc4c(n3)[C@@H](C)[C@H](C)OC4=O)cc12 [Compound 124] |
